We go through three compounds from paper PMC5686756, “IKKγ-Mimetic Peptides Block the Resistance to Apoptosis Associated with Kaposi's Sarcoma-Associated Herpesvirus Infection” (Journal of Virology, 2017).

In one series the target is T1, GB1–ks-vFLIP (Human herpesvirus 8 type P, UniProt F5HEZ4).
T1 construct: ks-vFLIP (residues 1 to 188) was PCR cloned into the EcoRI and XhoI sites of GB1-pBR22b; 6His (C); made in house; host or cells: E. coli BL21(DE3)
In words: biochemical. Type of series: binding, Kaposi's sarcoma-associated herpesvirus. As to the method: We next sought to assess the affinity of spIKKγ for vFLIP using isothermal calorimetry (ITC).
Isothermal calorimetry (ITC) experiments were performed using a Microcal VP-ITC micocalorimeter (MicroCal). For all binding reactions, syringe concentrations varied between ∼85 and 100 μM for IKKγ(150–272) and cell concentrations between ∼8 and 10 μM for GB1-vFLIP. Titrations consisted of an initial 2-μl injection, followed by 20 10-μl injections with stirring at 300 rpm. In competition assays, GB1–ks-vFLIP was first incubated with 20 μM spIKKγ and DMSO to 4% prior to loading into the cell and titration with IKKγ(150–272). All ITC binding experiments were performed in deionized water at 25°C owing to the buffer constraints of spIKKγ, GB1–ks-vFLIP, and IKKγ(150–272), where GB1–ks-vFLIP and IKKγ(150–272) were buffer matched by overnight dialysis, followed by the addition of 4% DMSO to each. […] Following collection, all data were analyzed using ORIGIN 70 software and fitted to a one-site binding model with each experiment performed at least in triplicate.

For the next series, the system named is BC3 cells. Type of series: cell-based, human. The conditions noted are these: for BC3 cell death, agent individually: TNF-α or ETO alone. As to the method:
(§1) Given their profound impact on NF-κB activation, we next assessed whether IKKγ-mimetic peptides could sensitize BC3 cells to TNF-α and ETO and thus stimulate cell death. To investigate this in cellulo, BC3 cells were transduced with the GST-IKKγ peptide vector prior to treatment with TNF-α or ETO, and after 24 h, their viabilities were assessed. As a control, similar trials were conducted but with GST-IKKγDM, which harbors the same peptide containing the F238R D242R IKKγ double mutations previously shown to impair ks-vFLIP binding and consequently NF-κB activation ([27]). […] We also determined whether spIKKγ could have a similar effect. Owing to the presence of the aliphatic linker and overall positive charge (+0.1), we reasoned that spIKKγ was likely to be cell permeable based on studies involving a diverse range of unrelated stapled peptides ([28][–][32]). […] The effects of SPIKKγ were also investigated on BCP-1 cells, an additional PEL cell line.
Lentiviral vectors expressing GST or GST fusion peptides together with green fluorescent protein (GFP), CherryFP, WT vFLIP, or vFLIPA57L (a mutant which fails to bind IKKγ) were produced as previously described ([19]). […] In each case, lentiviral vector doses were used to ensure that over 95% of cells were positive for the relevant fluorescent protein. […]
(§2) The transfected cells, the human B cell lines BC3, BCP-1, and DG75 (a […] negative for KSHV and Epstein-Barr virus [EBV]) were treated with human TNF-α (PeproTech or Alomone Labs), ETO (Sigma), spIKKγ (encompassing IKKγ residues 230 to 248; see Fig. 3 for structure), or combinations of spIKKγ with either TNF-α or ETO. Cell survival was determined after 24 and 48 h by trypan blue staining and counting with a hemocytometer. Cell viability is expressed as a percentage of the number of viable cells per culture at the start of each experiment. […] Significance difference was calculated by two-way analysis of variance (ANOVA) with Fisher's least significant difference (LSD) posttest.

The subject of a further series is Jurkat cells. In words: Cell viability assay (trypan blue), Jurkat cells. Type of series: cell-based, human. The conditions noted are these: for rescue of Jurkat cell survival by WT ks-vFLIP: FADD/ATG3 siRNA Jurkat cells overexpressing WT ks-vFLIP; for protection by ks-vFLIP, IKKγ-null cells: Jurkat cells null for IKKγ; for protection by A57L ks-vFLIP mutant against induced apoptosis: Jurkat cells with A57L ks-vFLIP; for Jurkat cell survival, FADD or ATG3 silenced or IKKγ null: no ks-vFLIP rescue, FADD siRNA, ATG3 siRNA.
Excerpt: Although it has been established that dysregulated activation of the canonical NF-κB pathway by ks-vFLIP renders mouse embryonic fibroblasts resistant to apoptosis induced by TNF-α ([12]), we sought to ascertain whether ks-vFLIP expression also prevents cell death induced by ETO. Unlike TNF-α, which instigates death receptor signaling, ETO, a topoisomerase II inhibitor, initiates cell death through the generation of DNA double-strand breaks ([20]). […] We next investigated the potential involvement of death-inducing signaling complex (DISC) formation and autophagy since ks-vFLIP has been cited (somewhat controversially) to interact with procaspase 8, an […] whose activation requires the adaptor protein FADD ([21]), and to physically associate with the ubiquitin-like conjugating enzyme ATG3, which is essential for the formation of autophagosomes ([11]). Viability assays were therefore conducted using Jurkat cells in which FADD and ATG3 were silenced (using small interfering RNA [siRNA]) together with those null for IKKγ in the presence of both ETO and TNF-α (Fig. 1C and D).
Lentiviral vectors expressing GST or GST fusion peptides together with green fluorescent protein (GFP), CherryFP, WT vFLIP, or vFLIPA57L (a mutant which fails to bind IKKγ) were produced as previously described ([19]). […] In each case, lentiviral vector doses were used to ensure that over 95% of cells were positive for the relevant fluorescent protein. The anti-FADD antibody used for immunoblots was purchased from BD Biosciences, and those for anti-ATG3 and anti-glyceraldehyde-3-phosphate dehydrogenase (anti-GAPDH) were from Cell Signaling Technology. Jurkat cells and their IKKγ-null derivatives were obtained from Alain Israel, Institute Pasteur, and verified as human T cells by surface CD3 staining.
as §2

In another series the test system is DG75 cells. In words: Cell viability assay (trypan blue), DG75 cells. Type of series: cell-based, human. As to the method:
as §1
BC3, BCP-1, and DG75 cells were purchased for this study from the American Type Culture Collection (ATCC). They were verified as human B cell lines by surface staining for human Ig.
as §2

Positions of bridges follow the written chain, without caps; N, C: chain ends. Non-standard residues stand in square brackets, D forms with d. Residues, ends and D or L forms follow the SMILES beside them. S5 = C=CCCC[C@](C)(N)C(=O)O

Consider `CC[C@H](C)[C@H](NC(=O)[C@H](Cc1c[nH]cn1)NC(=O)[C@H](CC(N)=O)NC(=O)[C@H](CC(=O)O)NC(=O)[C@H](Cc1ccc(O)cc1)NC(=O)[C@]1(C)CCCC=CCCC[C@](C)(NC(=O)[C@H](Cc2c[nH]cn2)NC(=O)[C@H](Cc2ccc(O)cc2)NC(=O)[C@H](C)NC(=O)[C@@H](NC(=O)[C@H](CCC(N)=O)NC(=O)[C@H](CC(C)C)NC(C)=O)C(C)C)C(=O)N[C@@H](CC(C)C)C(=O)N[C@@H](Cc2ccccc2)C(=O)N[C@@H](CCC(N)=O)C(=O)N1)C(=O)N[C@@H](CCCCN)C(=O)N[C@@H](CO)C(=O)N[C@@H](CO)C(=O)N[C@@H](CS)C(N)=O` [spIKKγ] (Ac-LQVAYH[S5]LFQ[S5]YDNHIKSSC-NH2; staple 7-11), for which the “solubility in aqueous solutions” value is “poor solubility”. In addition, the inhibitory constant (Ki) on GB1–ks-vFLIP stood at 0.257 µM. Further, the IC50 with BC3 cells (spIKKγ alone, after 24 h, trypan blue, triplicate independent experiments, read-out: 50% inhibitory concentration (IC50), BC3 viability) is approximately 75 µM.
In the case of `COc1cc([C@@H]2c3cc4c(cc3[C@@H](O[C@@H]3O[C@@H]5CO[C@@H](C)O[C@H]5[C@H](O)[C@H]3O)[C@H]3COC(=O)[C@H]23)OCO4)cc(OC)c1O` [ETO, etoposide], the “rescue by WT ks-vFLIP, ATG3 siRNA” value with Jurkat cells (ATG3 siRNA Jurkat cells, ETO) is reported as “to a lesser degree”. For the same compound, in the series on Jurkat cells (ETO 50 μM, cells null for ks-vFLIP), the “Jurkat cell survival, null for ks-vFLIP” value was “severely compromised”. In addition, in the series on Jurkat cells (ETO 50 μM, ks-vFLIP-expressing cells), the “Jurkat cell survival with ks-vFLIP” value is “only moderately reduced”. For the same compound, in the series with Jurkat cells, the “rescue of Jurkat cell survival by WT ks-vFLIP” value is “could to a large extent be rescued”; the “protection by ks-vFLIP, IKKγ-null cells” value is “completely refractory to the protective effects of ks-vFLIP”; the “protection by A57L ks-vFLIP mutant against induced apoptosis” value is reported as “could not protect cells against apoptosis”; the “Jurkat cell survival, FADD or ATG3 silenced or IKKγ null” value is recorded as “severely compromised in all three scenarios”. In addition, the “BC3 cell death, agent individually” value with BC3 cells is “negligible effects individually”. For the same compound, in the series on DG75 cells (Fig. 5E, 48 h), the “DG75 viability at 48 h, ETO (or ETO plus spIKKγ)” value is on record as “significant reduction in viability”. In addition, in the series on DG75 cells (after 48 h), the “DG75 sensitivity to ETO” value is recorded as “Considerable sensitivity”.
For TNF-α, in the series on Jurkat cells, the “rescue of Jurkat cell survival by WT ks-vFLIP” value is “could to a large extent be rescued”; the “protection by ks-vFLIP, IKKγ-null cells” value is recorded as “completely refractory to the protective effects of ks-vFLIP”; the “protection by A57L ks-vFLIP mutant against induced apoptosis” value is recorded as “could not protect cells against apoptosis”; the “Jurkat cell survival, FADD or ATG3 silenced or IKKγ null” value was “severely compromised in all three scenarios”. Further, in the series with Jurkat cells (TNF-α, various concentrations, with and without ks-vFLIP), the “Jurkat cell survival, trend versus ETO” value is reported as “closely mirror the trend”. In the series on BC3 cells, the “BC3 cell death, agent individually” value was “negligible effects individually”. Moreover, the “DG75 viability, control experiment” value in the series on DG75 cells (Fig. 5E, spIKKγ or TNF-α alone or in combination, 24 and 48 h) was “failed to have a negative impact”.

The Ki is the dissociation constant of the complex between target and ligand, obtained from inhibition or displacement. A low value points to higher affinity.
